According to patent publication US9244081B2, “Cell-based fluorescent assays for identifying alpha and delta ENaC modulators” (Senomyx, Inc., priority 2006, dated 2016):

What was measured:
[1] = molecular target: T1, alphaENaC channel (human alpha, beta and gamma subunits) (Homo sapiens, UniProt P37088+P51168+P51170); assay: FLIPR membrane potential dye assay, dye loaded in absence of sodium (Protocol 1), alphaENaC-transfected HEK293 cells; type: cell-based
T1 construct: expressed in transfected cells; host or cells: HEK293, transient transfection
T1 sequence (P37088 1-669): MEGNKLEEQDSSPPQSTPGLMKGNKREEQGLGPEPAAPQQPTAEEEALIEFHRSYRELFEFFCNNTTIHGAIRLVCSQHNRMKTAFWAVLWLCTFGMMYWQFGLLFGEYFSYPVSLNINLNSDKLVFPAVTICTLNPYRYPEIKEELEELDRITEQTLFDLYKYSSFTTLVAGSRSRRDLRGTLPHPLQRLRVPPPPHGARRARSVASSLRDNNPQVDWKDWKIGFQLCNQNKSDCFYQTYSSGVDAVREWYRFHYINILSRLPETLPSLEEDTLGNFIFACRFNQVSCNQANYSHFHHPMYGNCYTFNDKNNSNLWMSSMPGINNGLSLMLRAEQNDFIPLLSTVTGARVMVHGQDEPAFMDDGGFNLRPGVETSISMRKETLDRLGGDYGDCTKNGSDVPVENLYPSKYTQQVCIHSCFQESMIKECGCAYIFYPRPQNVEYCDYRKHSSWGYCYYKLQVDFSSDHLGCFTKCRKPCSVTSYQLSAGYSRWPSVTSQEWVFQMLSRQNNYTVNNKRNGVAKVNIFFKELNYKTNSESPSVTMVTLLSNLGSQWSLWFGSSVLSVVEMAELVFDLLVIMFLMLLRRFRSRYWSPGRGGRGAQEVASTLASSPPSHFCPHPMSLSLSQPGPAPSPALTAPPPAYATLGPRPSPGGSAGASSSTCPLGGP
T1 sequence (P51168 1-640): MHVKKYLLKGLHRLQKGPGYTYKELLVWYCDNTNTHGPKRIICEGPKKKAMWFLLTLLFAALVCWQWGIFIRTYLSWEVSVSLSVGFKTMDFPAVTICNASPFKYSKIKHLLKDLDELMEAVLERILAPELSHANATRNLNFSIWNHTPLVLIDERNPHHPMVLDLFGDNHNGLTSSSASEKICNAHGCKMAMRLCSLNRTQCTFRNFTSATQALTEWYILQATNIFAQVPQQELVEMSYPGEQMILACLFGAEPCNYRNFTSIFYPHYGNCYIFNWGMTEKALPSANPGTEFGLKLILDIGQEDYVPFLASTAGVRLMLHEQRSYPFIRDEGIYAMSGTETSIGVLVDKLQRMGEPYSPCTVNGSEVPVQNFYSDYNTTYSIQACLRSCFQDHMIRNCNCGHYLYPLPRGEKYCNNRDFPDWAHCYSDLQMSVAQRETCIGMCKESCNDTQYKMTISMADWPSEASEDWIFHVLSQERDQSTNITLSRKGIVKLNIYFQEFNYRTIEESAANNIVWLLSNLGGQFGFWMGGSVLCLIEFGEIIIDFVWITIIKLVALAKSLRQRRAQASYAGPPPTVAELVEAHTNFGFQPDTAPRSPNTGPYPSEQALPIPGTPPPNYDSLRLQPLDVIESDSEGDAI
T1 sequence (P51170 1-649): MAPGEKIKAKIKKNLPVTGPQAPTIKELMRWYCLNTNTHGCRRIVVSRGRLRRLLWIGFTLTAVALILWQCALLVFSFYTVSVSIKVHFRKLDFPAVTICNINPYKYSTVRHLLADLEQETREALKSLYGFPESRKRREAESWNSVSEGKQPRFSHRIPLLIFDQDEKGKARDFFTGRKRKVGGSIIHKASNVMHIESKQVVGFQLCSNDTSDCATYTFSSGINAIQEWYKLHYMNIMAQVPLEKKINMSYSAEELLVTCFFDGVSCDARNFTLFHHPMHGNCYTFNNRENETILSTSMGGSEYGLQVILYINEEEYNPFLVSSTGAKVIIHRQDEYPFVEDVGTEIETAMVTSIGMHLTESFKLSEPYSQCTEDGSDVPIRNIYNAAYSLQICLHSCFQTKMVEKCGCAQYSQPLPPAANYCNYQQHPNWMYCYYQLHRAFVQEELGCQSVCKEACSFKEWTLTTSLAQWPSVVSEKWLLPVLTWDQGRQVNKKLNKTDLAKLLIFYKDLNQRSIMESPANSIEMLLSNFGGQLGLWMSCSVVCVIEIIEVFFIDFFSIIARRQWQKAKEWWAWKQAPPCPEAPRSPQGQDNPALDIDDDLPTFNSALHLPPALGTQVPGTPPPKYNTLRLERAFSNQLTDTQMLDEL
Excerpt: (§1) In this experiment HEK293 cells which were transfected with sequences encoding the human alpha, beta and gamma subunits were used to screen for the effect of amiloride on NaCl induced changes in membrane potential. […] These HEK293 cells were transiently transfected with plasmids containing the alpha, beta and gamma ENaC encoding nucleic acid sequences and then loaded with a membrane potential dye (FMP; Molecular Devices) in the absence of sodium (NaCl was replaced with NMDG) at room temperature for one hour. Cells were then stimulated with 70 mM NaCl with (red trace) or without (white trace) 6.25 micromolar amiloride. Changes in membrane potential (fluorescent signal) in HEK293 cells were monitored on a FLIPR system (Molecular Devices). […] HEK293 cells were transiently transfected with the gamma, beta, and delta subunit containing plasmids and were loaded with a membrane potential dye (FMP; Molecular Devices) in the absence of sodium (NaCl was replaced with NMDG) at room temperature for one hour. Cells were then stimulated with 70 mM NaCl with (red trace) or without (white trace) 50 micromolar amiloride. Changes in membrane potential (fluorescent signal) were monitored on a FLIPR system (Molecular Devices). […] Therein cells were prepared and treated as in Panels A and B. Increasing concentrations of amiloride were used to assess potency at inhibiting the different forms of ENaC.
This example relates to the fluorescent experiments contained in FIG. 2, Panels A, B and C. In the experiment in Panel A it can be seen that the enhancer S559 increases the NaCl-induced change in membrane potential in HEK293 cells expressing the alphaENaC channel. […] Changes in membrane potential (fluorescent signal) were monitored on a FLIPR system (Molecular Devices). […] Changes in membrane potential (Fluorescent signal) were monitored on a FLIPR system (Molecular Devices).

[2] = molecular target: T2, deltaENaC channel (gamma, beta, and delta subunit) (Homo sapiens, UniProt P51168+P51170+P51172); assay: FLIPR membrane potential dye assay, dye loaded in absence of sodium (Protocol 1), deltaENaC-transfected HEK293 cells; type: cell-based; conditions: 50 micromolar amiloride; 70 mM NaCl stimulus; dye loaded without sodium (NMDG)
T2 construct: expressed in transfected cells; host or cells: HEK293, transient transfection
T2 sequence (P51172 1-638 isoform P51172-1): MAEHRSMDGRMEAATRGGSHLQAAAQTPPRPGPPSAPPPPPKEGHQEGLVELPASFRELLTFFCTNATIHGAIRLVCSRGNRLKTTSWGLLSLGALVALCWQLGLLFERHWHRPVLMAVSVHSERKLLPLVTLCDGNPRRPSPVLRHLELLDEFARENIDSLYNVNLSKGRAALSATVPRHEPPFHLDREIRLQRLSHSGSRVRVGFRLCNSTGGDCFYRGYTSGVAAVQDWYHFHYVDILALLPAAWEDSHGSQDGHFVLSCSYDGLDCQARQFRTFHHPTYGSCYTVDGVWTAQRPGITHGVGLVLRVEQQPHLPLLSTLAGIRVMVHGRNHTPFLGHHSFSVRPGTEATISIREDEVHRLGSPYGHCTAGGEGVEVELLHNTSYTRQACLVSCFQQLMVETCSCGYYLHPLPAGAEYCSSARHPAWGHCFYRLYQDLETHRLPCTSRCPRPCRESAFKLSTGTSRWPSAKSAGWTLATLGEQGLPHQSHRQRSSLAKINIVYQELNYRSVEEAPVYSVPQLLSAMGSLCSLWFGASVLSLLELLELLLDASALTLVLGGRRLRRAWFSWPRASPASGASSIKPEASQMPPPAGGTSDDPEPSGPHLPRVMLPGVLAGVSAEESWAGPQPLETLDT
T2 sequence (P51168 1-640): T1 sequence (P51168 1-640)
T2 sequence (P51170 1-649): T1 sequence (P51170 1-649)
Excerpt: as §1

[3] = system: perceived human salt intensity; assay: Human salty taste intensity test; type: in vivo; conditions: 300-fold (amiloride) and 3000-fold (benzamil) above IC50 for alpha beta gamma ENaC in oocytes
Excerpt: Unlike other mammals, amiloride only slightly reduces the intensity of sodium chloride taste, i.e., by about 15-20% when used at concentrations that specifically modulate ENaC function. […] Thus, additional non-ENaC genes are likely involved in human taste and other biological functions.

[4] = system: perceived human salt intensity; conditions: concentrations that specifically modulate ENaC function; cited from earlier work
HEK293 cells = assay: FLIPR membrane potential control in mock-transfected or un-transfected HEK293 cells (Protocol 2); type: cell-based; conditions: HEK293 transfected with mock plasmid (pUC19)
Protocol: In the experiment HEK293 cells again transfected transiently with plasmids containing the alpha, beta, and gamma ENaC subunit nucleic acid sequences and were treated as described in Example 2., Panel B (Protocol 2). Changes in membrane potential (fluorescent signal) were monitored on a FLIPR system (Molecular Devices). […] HEK293 cells were transfected with a mock plasmid (pUC19) and treated as described above. Changes in membrane potential (fluorescent signal) were monitored on a FLIPR system (Molecular Devices).
HEK293 cells transiently transfected with plasmids containing nucleic acid sequences encoding the human delta, beta and gamma ENaC subunits and were treated as described in FIG. 2; Panel B (Protocol 2).

[5] = molecular target: T3, alphaENaC channel (alpha, beta and gamma ENaC subunits) (Homo sapiens, UniProt P37088+P51168+P51170); assay: FLIPR membrane potential dye assay, dye loaded in 140 mM NaCl (Protocol 2), alphaENaC-transfected HEK293 cells; type: cell-based; conditions: 3 micromolar amiloride
T3 construct: expressed in transfected cells; host or cells: HEK293, transient transfection
T3 sequence (P37088 1-669): T1 sequence (P37088 1-669)
T3 sequence (P51168 1-640): T1 sequence (P51168 1-640)
T3 sequence (P51170 1-649): T1 sequence (P51170 1-649)
Excerpt: This example relates to the fluorescent experiments contained in FIG. 2, Panels A, B and C. In the experiment in Panel A it can be seen that the enhancer S559 increases the NaCl-induced change in membrane potential in HEK293 cells expressing the alphaENaC channel. HEK293 cells were transiently transfected with plasmids containing sequences encoding the human alpha, beta, and gamma ENaC subunits and were loaded with a membrane potential dye (FMP; Molecular Devices) in the absence of sodium (NaCl was replaced with NMDG) at room temperature for one hour. Cells were then stimulated with 17.5 mM NaCl with (red trace) and without (white trace) 15 micromolar S559. Changes in membrane potential (fluorescent signal) were monitored on a FLIPR system (Molecular Devices). […] Changes in membrane potential (Fluorescent signal) were monitored on a FLIPR system (Molecular Devices).
In the experiment HEK293 cells again transfected transiently with plasmids containing the alpha, beta, and gamma ENaC subunit nucleic acid sequences and were treated as described in Example 2., Panel B (Protocol 2). Changes in membrane potential (fluorescent signal) were monitored on a FLIPR system (Molecular Devices). […] Changes in membrane potential (fluorescent signal) were monitored on a FLIPR system (Molecular Devices). […]

N=C(N)NC(=O)c1nc(Cl)c(N)nc1N [amiloride]
inhibition of NaCl induced changes in membrane potential ([1]; 6.25 micromolar amiloride, 70 mM NaCl stimulus, dye loaded without sodium (NMDG)): totally inhibited | apparent affinity on α-ENaC transfected cells relative to δ-ENaC transfected cells ([1]; dye loaded in absence of sodium, sodium add back): at least 10 fold | potency at inhibiting alphaENaC versus deltaENaC ([1]; increasing concentrations of amiloride, cells treated as in Panels A and B): more potent at inhibiting alphaENaC than deltaENaC | inhibition of NaCl induced change in membrane potential [2]: totally inhibited | effect on perceived human salt intensity [3]: did not elicit a significant effect | reduction of intensity of sodium chloride taste [4]: 15-20% | effect on membrane potential in cells that do not express alphaENaC (HEK293 cells): do not exhibit any effect | block of S559 enhancer effects [5]: almost totally abolishes

NC(=Nc1ccccc1)NC(=O)c1nc(Cl)c(N)nc1N [phenamil]
effect on perceived human salt intensity [3]: did not elicit a significant effect
